Consider 27 compounds from patent publication US4751233A, “8[2-(imidazolyl)thio] and 8[2-(thiazolyl)thio]-5,6,7,8-tetrahydroquinolines, and anti-allergic use thereof” (Roussel Uclaf, priority 1985, dated 1988).

Test [1] concerns the target T1, LTD4 receptor (Cavia porcellus, UniProt Q2NNR5).
T1 construct: membrane preparation of guinea-pig lung tissue; from tissue; host or cells: guinea-pig lung membranes
T1 sequence (Q2NNR5 1-340): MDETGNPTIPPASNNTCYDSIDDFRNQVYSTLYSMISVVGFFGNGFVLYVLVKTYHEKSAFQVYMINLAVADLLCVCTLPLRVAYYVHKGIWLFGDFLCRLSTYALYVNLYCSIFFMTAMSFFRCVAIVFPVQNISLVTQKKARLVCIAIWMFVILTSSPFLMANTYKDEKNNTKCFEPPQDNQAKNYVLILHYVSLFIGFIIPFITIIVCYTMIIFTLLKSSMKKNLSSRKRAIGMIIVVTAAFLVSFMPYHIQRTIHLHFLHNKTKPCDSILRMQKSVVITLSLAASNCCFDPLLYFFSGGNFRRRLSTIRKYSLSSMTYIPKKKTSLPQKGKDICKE
Kind of test: LTD4 RECEPTOR: inhibition of specific binding of [3H]-LTD4 to a membrane preparation of guinea-pig lung tissue. The settings on record: [3H]-LTD4, guinea-pig lung membranes; for IC50: graphically from dose-response curves, read-out: LTD4 receptor (concentration of tested compound causing 50% inhibition of specific binding). Here is the method: Inhibition of the specific binding of [^3 H]-LTD4 to a membrane preparation of guinea-pig lung tissue was assayed by a modification of a method reported by Bruns et al [Life Sciences, Vol. 33, pp. 645-653 (1983)]and the data presented in Table II are micromolar concentrations of the tested compound causing 50% ihibition of specific binding determined graphically from dose-response curves.

The target in test [2] is T2, 5-lipoxygenase (Rattus norvegicus, UniProt P12527).
T2 sequence (P12527 1-673): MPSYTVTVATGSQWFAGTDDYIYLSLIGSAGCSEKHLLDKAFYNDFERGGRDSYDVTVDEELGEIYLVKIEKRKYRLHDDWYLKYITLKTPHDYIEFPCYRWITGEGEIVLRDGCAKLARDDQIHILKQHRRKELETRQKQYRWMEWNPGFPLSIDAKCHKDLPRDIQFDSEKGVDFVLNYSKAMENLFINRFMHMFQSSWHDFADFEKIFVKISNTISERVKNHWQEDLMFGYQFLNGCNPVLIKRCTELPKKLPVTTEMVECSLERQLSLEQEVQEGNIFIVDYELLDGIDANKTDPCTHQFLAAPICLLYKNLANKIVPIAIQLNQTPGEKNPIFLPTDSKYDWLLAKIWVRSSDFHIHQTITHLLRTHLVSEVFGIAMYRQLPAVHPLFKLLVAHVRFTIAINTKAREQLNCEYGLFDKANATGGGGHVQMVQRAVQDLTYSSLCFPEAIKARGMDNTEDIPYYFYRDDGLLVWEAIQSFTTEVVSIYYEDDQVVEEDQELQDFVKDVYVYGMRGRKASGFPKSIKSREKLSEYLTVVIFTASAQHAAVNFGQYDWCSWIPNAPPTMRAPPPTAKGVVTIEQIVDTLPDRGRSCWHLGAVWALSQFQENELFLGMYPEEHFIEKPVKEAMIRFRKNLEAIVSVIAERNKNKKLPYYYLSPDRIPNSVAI
In words: 5-LIPOX: inhibition of Ca++ ionophore (A23187) induced release of 5-lipoxygenase products (leukotriene B4 and 5-HETE) from [14C]arachidonic acid pre-labelled rat peritoneal neutrophils. Type of test: cell-based. The settings on record: A23187-induced release of leukotriene B4 and 5-HETE, graphically from dose-response curves, read-out: 5-LIPOX (concentration of test compound causing 50% inhibition of control response). The source says:
Inhibition of the Ca^++ ionophore (A23187) induced release of 5-lipoxygenase products, leukotriene B4 and 5-HETE, from [^14 C]arachidonic acid pre-labelled rat peritoneal neutrophils. Assayed by a modification of the method reported by Ahnfelt-Ronne et al [Biochemical Pharmacology, Vol. 31, No. 16, pp 2619-2624 (1982)]. Data presented in Table II are micromolar concentrations of test compound causing 50% inhibition of control response determined graphically from dose-response curves.

Turning to `c1cnc2c(c1)CCCC2Sc1nc2ccccc2s1` (stereo not shown) [Example 1, 8-(2-benzothiazolylthio)-5,6,7,8-tetrahydroquinoline], the IC50 is 10 µM in test [1] and 1.8 µM in test [2].
On to `COc1ccc2nc(SC3CCCc4cccnc43)[nH]c2c1` (stereo not shown) [Example 2, 8-(6-methoxy-1H-benzimidazol-2-ylthio)-5,6,7,8-tetrahydroquinoline], for which, in test [2], the IC50 amounted to 58 µM.
Turning to `c1cnc2c(c1)CCCC2Sc1nc2ccccc2[nH]1` (stereo not shown) [Example 3, 8-(1H-benzimidazol-2-ylthio)-5,6,7,8-tetrahydroquinoline], the figures for the IC50 in test [1] and in test [2] were above 100 µM and 35.1 µM, respectively.
On to `CCOC(=O)Cc1ccc2[nH]c(SC3CCCc4cccnc43)nc2c1` (stereo not shown) [Example 4, ethyl 2-[(5,6,7,8-tetrahydro-8-quinolinyl)-thio]-1H-benzimidazole-5-acetate], for which, in test [2], the IC50 stood at 20 µM.
On to `O=[N+]([O-])c1ccc2nc(SC3CCCc4cccnc43)[nH]c2c1` (stereo not shown) [Example 5, 8-(6-nitro-1H-benzimidazol-2-ylthio)-5,6,7,8-tetrahydroquinoline], for which the IC50 in test [1] is above 100 µM; in test [2], 6.6 µM.
For `Cc1ccc2nc(SC3CCCc4cccnc43)[nH]c2c1` (stereo not shown) [Example 6, 8-(6-methyl-1H-benzimidazol-2-ylthio)-5,6,7,8-tetrahydroquinoline], in that order: 74 µM and 5 µM.
Turning to `Clc1cc2nc(SC3CCCc4cccnc43)[nH]c2cc1Cl` (stereo not shown) [Example 7, 8-(5,6-dichloro-1H-benzimidazol-2-ylthio)-5,6,7,8-tetrahydroquinoline], in test [2], the IC50 was found to be 4.2 µM.
Turning to `Clc1ccc2nc(SC3CCCc4cccnc43)[nH]c2c1` (stereo not shown) [Example 8, 8-(6-chloro-1H-benzimidazol-2-ylthio)-5,6,7,8-tetrahydroquinoline], the IC50 in test [1] was found to be 6.3 µM; in test [2], 1.9 µM.
For `c1cnc2c(c1)CCCC2Sc1nc2ccccc2o1` (stereo not shown) [Example 9, 8-(2-benzoxazolylthio)-5,6,7,8-tetrahydroquinoline], in that order: above 100 µM and 16.9 µM.
For `COC(=O)Cc1ccc2oc(SC3CCCc4cccnc43)nc2c1` (stereo not shown) [Example 10, methyl 2-[(5,6,7,8-tetrahydro-8-quinolinyl)-thio]benzoxazole-5-acetate], in that order: 12 µM and 14.1 µM.
For `Clc1ccc2sc(SC3CCCc4cccnc43)nc2c1` (stereo not shown) [Example 11, 8-[(5-chloro-2-benzothiazolyl)thio]-5,6,7,8-tetrahydroquinoline] the same measures were 100 µM and 1.5 µM.
With `Clc1ccc2nc(SC3CCCc4cccnc43)sc2c1` (stereo not shown) [Example 12], the IC50 was determined as 8.9 µM in test [1] and 2.6 µM in test [2].
As for `CCOc1ccc2nc(SC3CCCc4cccnc43)sc2c1` (stereo not shown) [Example 13, 8-[(6-ethoxy-2-benzothiazolyl)thio]-5,6,7,8-tetrahydroquinoline], the IC50 in test [1] worked out at 9 µM; in test [2], 1.2 µM.
In the case of `O=c1[nH]c(SC2CCCc3cccnc32)nc2ccccc12` (stereo not shown) [Example 14, 2-[(5,6,7,8-tetrahydroquinoline-8-yl)thio]-4(3H)-quinazolinone], the IC50 in test [1] and in test [2] was above 100 µM in each case.
Consider `Cc1ccc2nc(SC3CCCc4cccnc43)sc2c1` (stereo not shown) [Example 15, 8-[(6-methyl-2-benzothiazolyl)thio]-5,6,7,8-tetrahydroquinoline], for which the results for the IC50 in test [1] and in test [2] were 9.5 µM and 2.3 µM, respectively.
With `O=[N+]([O-])c1ccc2sc(SC3CCCc4cccnc43)nc2c1` (stereo not shown) [Example 16, 8-[(5-nitro-2-benzothiazolyl)thio]-5,6,7,8-tetrahydroquinoline], the IC50 in test [1] was above 100 µM; in test [2], 2 µM.
For `Cc1ccc2sc(SC3CCCc4cccnc43)nc2c1` (stereo not shown) [Example 17, 8-[(5-methyl-2-benzothiazolyl)thio]-5,6,7,8-tetrahydroquinoline] the same measures were 7.1 µM and 1.5 µM.
For `Clc1cc2nc(SC3CCCc4cccnc43)sc2cc1Cl` (stereo not shown) [Example 18, 8-[(5,6-dichloro-2-benzothiazolyl)thio]-5,6,7,8-tetrahydroquinoline], in that order: 100 µM and 45 µM.
As to `CCSc1ccc2nc(SC3CCCc4cccnc43)sc2c1` (stereo not shown) [Example 19, 8-[(6-ethylthio-2-benzothiazolyl)thio]-5,6,7,8-tetrahydroquinoline], the results for the IC50 in test [1] and in test [2] were 1.7 µM and 1.1 µM, respectively.
For `O=[N+]([O-])c1ccc2nc(SC3CCCc4cccnc43)sc2c1` (stereo not shown) [Example 20], the IC50 in test [1] is above 100 µM; in test [2], 4 µM.
For `FC(F)(F)c1ccc2sc(SC3CCCc4cccnc43)nc2c1` (stereo not shown) [Example 21, 8-[(5-trifluoromethyl-2-benzothiazolyl)thio]-5,6,7,8-tetrahydroquinoline], in that order: 18 µM and 2.6 µM.
For `Clc1cc(Cl)c2nc(SC3CCCc4cccnc43)sc2c1` (stereo not shown) [Example 22, 8-[(4,6-dichloro-2-benzothiazolyl)thio]-5,6,7,8-tetrahydroquinoline], in that order: above 100 µM and 22 µM.
`Clc1cccc2sc(SC3CCCc4cccnc43)nc12` (stereo not shown) [Example 23]: the IC50 was 33 µM in test [1] and 12 µM in test [2].
For `Cc1cccc2sc(SC3CCCc4cccnc43)nc12` (stereo not shown) [Example 24, 8-[(4-methyl-2-benzothiazolyl)thio]-5,6,7,8-tetrahydroquinoline] the same measures were 14 µM and 3.5 µM.
As for `c1ccc(-c2nc(SC3CCCc4cccnc43)[nH]c2-c2ccccc2)cc1` (stereo not shown) [Example 25, 8-(4,5-diphenyl-1H-imidazol-2-ylthio)-5,6,7,8-tetrahydroquinoline], the IC50 is above 100 µM in test [1] and 3 µM in test [2]. In test [1] (remark in words), the “LTD4 receptor, remark printed beside the value” is “pot”.
On to `Cn1ccnc1SC1CCCc2cccnc21` (stereo not shown) [Example 26, 8-(1-methylimidazol-2-ylthio)-5,6,7,8-tetrahydroquinoline], for which the IC50 in test [1] and in test [2] was above 100 µM in each case.
On to `c1cnc2c(c1)CCCC2Sc1nccs1` (stereo not shown) [Example 27, 8-(2-thiazolylthio)-5,6,7,8-tetrahydroquinoline], for which the IC50 in test [1] is above 100 µM; in test [2], 25.1 µM.
